Experimental data as given in the NIST ThermoML archive (doi:10.1016/j.tca.2018.07.026).

Legend:
[1] = molar heat capacity at constant pressure; conditions: 101.33 kPa, Crystal, DSC
[2] = Crystal, Transpiration method

O=C(O)c1ccccc1 [benzoic acid]
[1]
Conditions	molar heat capacity at constant pressure [J/K/mol]
318.8 K	122.9
319.2 K	127.1
319.7 K	130.8
320.1 K	134.3
320.6 K	137.7
321 K	140.7
321.4 K	143.4
321.9 K	146.1
322.3 K	148.4
322.7 K	150.5
323.1 K	152.4
323.5 K	154.1
324 K	155.6
324.4 K	157
324.8 K	158.3
325.2 K	159.5
325.6 K	160.4
326 K	161.3
326.4 K	162
326.8 K	162.7
327.2 K	163.4
327.6 K	163.9
328 K	164.3
328.3 K	164.8
328.7 K	165.1
329.1 K	165.3
329.5 K	165.6
329.9 K	165.7
330.3 K	165.9
330.6 K	166
331 K	166.3
331.4 K	166.3
331.8 K	166.4
332.1 K	166.4
332.5 K	166.4
332.9 K	166.5
333.3 K	166.5
333.6 K	166.5
334 K	166.6
334.4 K	166.6
334.8 K	166.5
335.1 K	166.6
335.5 K	166.7
335.9 K	166.7
336.2 K	166.7
336.6 K	166.7
337 K	166.7
337.3 K	166.7
337.7 K	166.9
338.1 K	166.9
338.5 K	167
338.8 K	167.1
339.2 K	167.2
339.6 K	167.3
339.9 K	167.4
340.3 K	167.5
340.7 K	167.6
341 K	167.7
341.4 K	167.8
341.8 K	167.9
342 K	168

N#Cc1ccc2ccccc2c1 [2-naphthalenecarbonitrile]
Conditions	molar heat capacity at constant pressure, [1] [J/K/mol]	vapor or sublimation pressure, [2] [kPa]
313.8 K	182.1	–
314.4 K	182.8	–
314.9 K	183.3	–
315.3 K	183.7	–
315.5 K	–	0.00091
315.8 K	184.2	–
316.3 K	184.6	–
316.8 K	185	–
317.3 K	185.3	–
317.8 K	185.4	–
318.2 K	185.5	–
318.4 K	–	0.00122
318.7 K	185.9	–
319.2 K	186.1	–
319.6 K	186.3	–
320.1 K	186.6	–
320.5 K	186.8	0.00152
320.9 K	187.1	–
321.4 K	187.4	–
321.8 K	187.5	–
322.2 K	187.8	–
322.4 K	–	0.00195
322.7 K	188.1	–
323.1 K	188.4	–
323.5 K	188.6	–
323.9 K	188.9	–
324.4 K	189.1	–
324.5 K	–	0.00237
324.8 K	189.5	–
325.2 K	189.8	–
325.6 K	190.2	–
326 K	190.7	–
326.4 K	191.2	0.00284
326.8 K	191.5	–
327.1 K	191.8	–
328.2 K	–	0.0035
331.3 K	–	0.00463
333.2 K	–	0.00579
334.2 K	–	0.00641

c1ccc2ccccc2c1 [naphthalene]
[2]
Conditions	vapor or sublimation pressure [kPa]
288.2 K	0.00418
290.7 K	0.00548
293.2 K	0.00698
298.2 K	0.01114
303.2 K	0.01811
308 K	0.02903
313.1 K	0.04408
318.2 K	0.0671
323.1 K	0.102
328.1 K	0.1538
330.5 K	0.1867
333 K	0.2235
